Source: PubChem BioAssay (NCI)
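Exposure lasted 48 hours, with cells grown in 96-well plates and compounds tested at five concentrations. Definition used: TGI = concentration required for complete inhibition of growth.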

What was measured:
Assay in all cases: growth of human tumour cells (NCI), 48 h
[1] = test system: MDA-N
[2] = test system: SN12C renal
[3] = test system: MCF7 breast
[4] = test system: DU-145 prostate
[5] = test system: NCI-H460 lung
[6] = test system: OVCAR-8 ovarian
[7] = test system: PC-3 prostate
[8] = test system: HS 578T breast
[9] = test system: T-47D breast
[10] = test system: MDA-MB-435
[11] = test system: SNB-75 CNS
[12] = test system: LOX IMVI melanoma
[13] = test system: SK-MEL-5 melanoma
[14] = test system: K-562 leukemia
[15] = test system: SF-539 CNS
[16] = test system: KM12 colon
[17] = test system: M14 melanoma
[18] = test system: NCI/ADR-RES ovarian
[19] = test system: IGROV1 ovarian
[20] = test system: HOP-92 NSCLC
[21] = test system: OVCAR-3 ovarian
[22] = test system: SW-620 colon
[23] = test system: EKVX NSCLC
[24] = test system: OVCAR-4 ovarian
[25] = test system: UACC-62 melanoma
[26] = test system: HCT-15 colon
[27] = test system: CCRF-CEM leukemia
[28] = test system: UACC-257 melanoma
[29] = test system: TK-10 renal
[30] = test system: A498 renal
[31] = test system: HOP-62 NSCLC
[32] = test system: HT29 colon
[33] = test system: U251 CNS
[34] = test system: NCI-H23 lung
[35] = test system: CAKI-1 renal
[36] = test system: SR leukemia
[37] = test system: SF-295 CNS
[38] = test system: 786-0 renal
[39] = test system: COLO 205 colon
[40] = test system: RPMI-8226 leukemia
[41] = test system: OVCAR-5 ovarian
[42] = test system: MALME-3M melanoma
[43] = test system: HL-60(TB) leukemia
[44] = test system: NCI-H522 lung
[45] = test system: RXF 393 renal
[46] = test system: ACHN renal
[47] = test system: SK-MEL-28 melanoma
[48] = test system: UO-31 renal
[49] = test system: MOLT-4 leukemia
[50] = test system: A549 NSCLC
[51] = test system: SNB-19 CNS
[52] = test system: BT-549 breast
[53] = test system: MDA-MB-231 breast
[54] = test system: SK-MEL-2 melanoma
[55] = test system: SK-OV-3 ovarian
[56] = test system: SF-268 CNS
[57] = test system: HCT-116 colon
[58] = test system: NCI-H226 lung
[59] = test system: HCC-2998 colon

Cc1ccc(C)c(NC(=O)C(Cc2c[nH]c3ccccc23)NC(=O)OCc2ccccc2)c1 (configuration not stated)
TGI [1]: > 100 µM
TGI [2]: > 100 µM
TGI [3]: > 100 µM
TGI [4]: 33.7 µM
TGI [5]: 44 µM
TGI [6]: > 100 µM
TGI [7]: 28.6 µM
TGI [8]: > 100 µM
TGI [9]: 38 µM
TGI [10]: > 100 µM
TGI [11]: 27.9 µM
TGI [12]: > 100 µM
TGI [13]: 34.5 µM
TGI [14]: 28.9 µM
TGI [15]: 21.5 µM
TGI [16]: 69.7 µM
TGI [17]: 34.7 µM
TGI [18]: 33 µM
TGI [19]: 70.8 µM
TGI [20]: 57.5 µM
TGI [21]: > 100 µM
TGI [22]: 35.5 µM
TGI [23]: 49 µM
TGI [24]: 25 µM
TGI [25]: 59.7 µM
TGI [26]: > 100 µM
TGI [27]: 12.2 µM
TGI [28]: 34.3 µM
TGI [29]: 39.2 µM
TGI [30]: > 100 µM
TGI [31]: > 100 µM
TGI [32]: 45.1 µM
TGI [33]: 35.1 µM
TGI [34]: 68.4 µM
TGI [35]: 56.7 µM
TGI [36]: 48.2 µM
TGI [37]: > 100 µM
TGI [38]: 39.3 µM
TGI [39]: 46.1 µM
TGI [40]: 44 µM
TGI [41]: > 100 µM
TGI [42]: 98.9 µM
TGI [43]: 15.4 µM
TGI [44]: 69.1 µM
TGI [45]: 22 µM
TGI [46]: > 100 µM
TGI [47]: > 100 µM
TGI [48]: 34.9 µM
TGI [49]: 19.6 µM
TGI [50]: 26.1 µM
TGI [51]: 27.6 µM
TGI [52]: 44.8 µM
TGI [53]: 47.4 µM
TGI [54]: 45.9 µM
TGI [55]: 50.1 µM
TGI [56]: > 100 µM
TGI [57]: 98.6 µM

CC(=O)OCc1cn(S(=O)(=O)c2ccc(C)cc2)cn1
TGI [1]: 52.6 µM
TGI [2]: > 100 µM
TGI [3]: > 100 µM
TGI [4]: > 100 µM
TGI [58]: > 100 µM
TGI [5]: > 100 µM
TGI [6]: > 100 µM
TGI [7]: > 100 µM
TGI [8]: > 100 µM
TGI [9]: > 100 µM
TGI [10]: > 100 µM
TGI [11]: > 100 µM
TGI [12]: > 100 µM
TGI [13]: > 100 µM
TGI [14]: > 100 µM
TGI [15]: > 100 µM
TGI [17]: > 100 µM
TGI [18]: > 100 µM
TGI [19]: > 100 µM
TGI [20]: > 100 µM
TGI [21]: 85.9 µM
TGI [22]: > 100 µM
TGI [23]: > 100 µM
TGI [24]: > 100 µM
TGI [25]: > 100 µM
TGI [26]: > 100 µM
TGI [27]: > 100 µM
TGI [29]: > 100 µM
TGI [30]: > 100 µM
TGI [31]: > 100 µM
TGI [32]: > 100 µM
TGI [33]: > 100 µM
TGI [34]: > 100 µM
TGI [35]: > 100 µM
TGI [36]: > 100 µM
TGI [37]: > 100 µM
TGI [38]: > 100 µM
TGI [39]: > 100 µM
TGI [40]: > 100 µM
TGI [42]: > 100 µM
TGI [43]: > 100 µM
TGI [44]: > 100 µM
TGI [45]: > 100 µM
TGI [46]: > 100 µM
TGI [47]: > 100 µM
TGI [48]: > 100 µM
TGI [49]: > 100 µM
TGI [50]: > 100 µM
TGI [51]: > 100 µM
TGI [52]: > 100 µM
TGI [53]: > 100 µM
TGI [59]: > 100 µM
TGI [55]: > 100 µM
TGI [56]: 97.5 µM
TGI [57]: > 100 µM
